{
  "source": "paper PMC11775015",
  "about": "“Parishin B blocking TRIB3-AKT1 interaction inhibits breast cancer lung metastasis” (Frontiers in Pharmacology, 2025)",
  "biological_target": "T1, TRIB3 (Tribbles homolog 3) (Homo sapiens, UniProt Q96RU7)",
  "T1 construct": "endogenous untagged full-length protein in RIPA lysate of MDA-MB-231 cells, detected by Western blot (anti-TRIB3 Abcam ab75846); NP_066981.2 printed for the homology model",
  "T1 sequence (Q96RU7 1-358)": "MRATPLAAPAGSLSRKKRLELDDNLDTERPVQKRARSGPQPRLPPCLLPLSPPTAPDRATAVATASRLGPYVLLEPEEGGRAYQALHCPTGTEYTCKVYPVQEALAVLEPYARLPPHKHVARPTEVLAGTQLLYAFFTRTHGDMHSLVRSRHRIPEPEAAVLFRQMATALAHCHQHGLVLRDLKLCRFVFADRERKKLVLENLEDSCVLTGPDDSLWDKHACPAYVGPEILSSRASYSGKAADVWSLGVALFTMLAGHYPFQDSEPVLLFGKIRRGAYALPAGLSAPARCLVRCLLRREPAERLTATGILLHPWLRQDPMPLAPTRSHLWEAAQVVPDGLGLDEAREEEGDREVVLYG",
  "test": "CETSA (cell lysate, Western blot)",
  "assay_type": "biochemical",
  "conditions": "10 uM PB, 1 h, MDA-MB-231 RIPA lysate; 35-60 C for 10 min",
  "data": [
    {"smiles": "O=C(O)CC(O)(CC(=O)OCc1ccc(O[C@@H]2O[C@H](CO)[C@@H](O)[C@H](O)[C@H]2O)cc1)C(=O)OCc1ccc(O[C@@H]2O[C@H](CO)[C@@H](O)[C@H](O)[C@H]2O)cc1", "note": "(stereo partly shown) [PB, Parishin B]", "values": [
      {"measurement": "CETSA (cell lysate, Western blot)", "value": "PB enhances the thermal stability of TRIB3, resulting in improved thermal stabilization of TRIB3"}
    ]}
  ]
}
